We go through one compound from patent US9308195B2, “Non-aqueous taxane formulations and methods of using the same” (Teikoku Pharma USA, Inc., priority 2012, dated 2016).

This data set in a line: Solubility of anhydrous docetaxel in PEG 400 or PEG 300. In kind it is physicochemical. As to conditions: per 1 g of PEG 300; ultrasonic dispersion for 5 minutes at 70-80° C. The method, then:
Formulations of anhydrous docetaxel and either PEG 400 or PEG 300 were prepared and mixed using ultrasonic dispersion for 5 minutes at 70-80° C. 1 g of PEG 400 dissolved 25 mg of anhydrous docetaxel. […] 1 g of PEG 300 dissolved 100 mg of anhydrous docetaxel. Accordingly, PEG 300 was able to better solubilize anhydrous docetaxel.

In the case of `CC(=O)O[C@@]12CO[C@@H]1C[C@H](O)[C@@]1(C)C(=O)[C@H](O)C3=C(C)[C@@H](OC(=O)[C@H](O)[C@@H](NC(=O)OC(C)(C)C)c4ccccc4)C[C@@](O)([C@@H](OC(=O)c4ccccc4)[C@H]21)C3(C)C` [anhydrous docetaxel, (2R,3S)-N-carboxy-3-phenylisoserine,Ntert-butyl ester, 13-ester with 5β-20-epoxy-1,2α,4,7β,10β,13α-hexahydroxytax-11-en-9-one 4-acetate 2-benzoate], the “amount of anhydrous docetaxel dissolved by 1 g of PEG 300” value is ≥ 100 mg.
